Source: patent US6410790B1, “3-amin3-arylpropan-1-ol compounds, their preparation and use” (priority 1999, dated 2002)

Legend:
[1] = molecular target: T1, NA transporter (Rattus norvegicus, UniProt Q63380); assay: synaptosomal noradrenaline uptake inhibition (NA uptake inhibition); format: biochemical; details: for inhibition at 1 µM: read-out: NA Uptake Inhibition at 1 μM, 1 μM in the assay, synaptosomes from rat hypothalamus; for NA Uptake Inhibition at 1 μM: 1 μM in the assay, synaptosomes from rat hypothalamus
T1 construct: synaptosomes are isolated fresh from rat brains; from tissue; host or cells: rat hypothalamus synaptosomes (P2 fraction)
Procedure: In order to carry out these in vitro studies, synaptosomes are isolated fresh from rat brains. In each case a so-called “P2” fraction is used, which is prepared according to the protocol of Gray and Whittaker (E. G. Gray and V. P. Whittaker (1962) J. Anat. 76, 79-88).
(in each case N=4, i.e. mean values±SEM from 4 independent series of experiments that were carried out in the form of triple parallel experiments).
(§1) For this purpose IC50 values are obtained, which can be converted to inhibitor constants (Ki) according to the “Cheng-Prusoff equation” (Y. C. Clieng and W. H. Prusoff (1973) Biochem. Pharmacol. 22, 3099-3108). The IC50 values were obtained by means of the computer program “Figure P” (version 6.0, Biosoft, Cambridge, England). Km values were calculated according to Lineweaver and Burk (H. Lineweaver and D. Burk (1934) J. Am. Chem. Soc. 56, 658-666). The “Ligand” computer program (version 4, Biosoft, England) was used to obtain Ken values.

[2] = test system: phenylquinone-induced writhing reaction; assay: phenylquinone-induced writhing test in mice; format: in vivo; details: male NMRI mice, phenylquinone i.p. 10 minutes later; for inhibition in vivo at 10 mg/kg: Mus musculus, iv, 10 min, 10 mg/kg intravenously
Procedure: Analgesic Effect in the Writhing Test in Mice
The analgesic effect was investigated in the phenylquinone-induced writhing test in mice (as modified by I. C. Hendershot and J. Forsaith (1959) J. Pharmacol. Exp. Ther. 125, 237-240). Male NMRI mice weighing 25 to 30 g were used for the test. Groups of 10 animals each received by intraperitoineal application, for each substance dose, 0.3 ml/mouse of a 0.02% aqueous solution of phenylquinone (phenylbenzoquinone, Sigma Company, Deisenhofen; solution prepared with addition of 5% of ethanol and kept in a water bath at 45° C.) 10 minutes after intravenous administration of the test substances. The animals were placed individually in observation cages. The number of pain-induced stretching movements (so-called writhing reactions=straightening of the body together with stretching of the rear extremities) was measured by means of a push-button counter 5 to 20 minutes after administration of the phenylquinone. Animals that had received only physiological saline solution served as controls. All substances were tested in the standard dose of 10 mg/kg. The percentage inhibition (% inhibition) of the writhing reaction produced by a substance was calculated according to the following formula: [formula]

[3] = test system: binding site 2 of the sodium channel; assay: BTX binding, sodium channel; details: 10 μM, percentage inhibition, [3H]-batrachotoxin A20 α-benzoate 10 nM, rat cerebral cortex synaptosomes
Procedure: Binding Investigations in the Sodium Channel
Binding Site 2 (BTX Binding)
The binding site 2 of the sodium channel is the so-called batrachotoxin (BTX) binding site. [^3H]-batrachlotoxin A20 α-benzoate (10 nM in the assay) was used as ligand. These ion channel particles (synaptosomes) were concentrated from rat cerebral cortex according to the procedure of Gray and Whittaker (E. G. Gray and V. P. Whittaker (1962) J. Anat. 76, 79-88). The radioactivity that is measured in the presence of veratridine (0.3 mM in the assay) is defined as non-specific binding. The material was incubated at 37° C. for 120 minutes. The assay conditions are carried out according to the protocol published by Pauwels, Leysen and Laduron (P. J. Pauwels, J. E. Leysen and P. M. Laduron (1986) Eur. J. Pharmacol. 124, 291-298).
(N=3, i.e. mean values±SEM from 3 independent series of experiments that were carried out in the form of triple parallel experiments).
as §1

[4] = test system: benzothiazepine binding site of the L-type calcium channel; assay: Diltiazem binding, L calcium channel; set-up: species or system rat; details: 10 μM, percentage inhibition, [3H]-cis-(+)-diltiazem 5 nM, rat cerebral cortex membranes
Procedure: Binding Investigations in the L Calcium Channel
Benzothiazepine Binding Site (Diltiazem Binding)
The biological membrane material was isolated from the rat cerebral cortex. [^3H]-cis-(+)-diltiazem (5 nM in the assay) was used as ligand. The material was incubated for 20 minutes at 25° C. The radioactivity that is measured in the presence of (±)-diltiazem (10^−6 M in the assay) is defined as non-specific binding. After completion of incubation the non-bound fraction of the radioactive ligand is separated by means of a filtration process using Whatman Glasfiber GF/B membranes. The membranes are washed and the radioactivity is then measured using a β-counter. The method is based on the details published by Schoemaker and Langer (H. Schoemaker and S. Z. Langer (1985) Eur. J. Pharmacol. 111, 273-277).
as §1

T1 sequence (Q63380 1-617): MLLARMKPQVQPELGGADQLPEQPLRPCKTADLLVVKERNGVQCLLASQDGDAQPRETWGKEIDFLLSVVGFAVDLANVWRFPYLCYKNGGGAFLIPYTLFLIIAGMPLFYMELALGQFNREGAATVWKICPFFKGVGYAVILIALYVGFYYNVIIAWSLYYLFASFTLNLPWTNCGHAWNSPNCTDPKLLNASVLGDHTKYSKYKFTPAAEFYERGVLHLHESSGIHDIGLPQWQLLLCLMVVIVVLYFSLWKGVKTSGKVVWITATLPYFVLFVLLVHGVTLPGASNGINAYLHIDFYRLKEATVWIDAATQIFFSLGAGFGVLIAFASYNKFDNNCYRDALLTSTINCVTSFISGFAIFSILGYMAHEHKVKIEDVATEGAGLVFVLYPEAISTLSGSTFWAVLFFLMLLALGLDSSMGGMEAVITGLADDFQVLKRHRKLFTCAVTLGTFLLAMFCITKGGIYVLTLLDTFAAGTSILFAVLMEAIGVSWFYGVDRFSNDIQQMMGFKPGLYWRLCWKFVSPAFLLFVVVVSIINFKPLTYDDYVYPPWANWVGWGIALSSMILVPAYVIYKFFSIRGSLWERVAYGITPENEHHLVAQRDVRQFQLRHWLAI

CN(C)C(c1ccc(F)cc1)C1CCCCC1(O)Cc1ccccc1.Cl (centres unmarked) [Example 41, 1-benzyl-2-[dimethylamino-(4-fluorophenyl)methyl]cyclohexanol, hydrochloride]
inhibition at 1 µM [1]: 100% | inhibition in vivo at 10 mg/kg [2]: 88% | BTX Binding at 10 μM [3]: 94% | Diltiazem Binding at 10 μM [4]: 87%

CN(C)C(c1cccc(Cl)c1)C1CCCCC1(O)c1ccccc1.Cl (centres unmarked) [Example 42]
NA Uptake Inhibition at 1 μM [1]: 82% | % Inhibition of the writhing reaction at 10 mg/kg intravenously [2]: 76% | BTX Binding at 10 μM [3]: 89% | Diltiazem Binding at 10 μM [4]: 50%

CN(C)CC1CCCCC1(O)c1ccc(Cl)cc1Cl.Cl (centres unmarked) [Example 43, 1-(2,4-dichlorophenyl)-2-(3-dimethylaminomethyl)-1-cyclohexanol, hydrochloride]
NA Uptake Inhibition at 1 μM [1]: 14% | % Inhibition of the writhing reaction at 10 mg/kg intravenously [2]: 80% | BTX Binding at 10 μM [3]: 94% | Diltiazem Binding at 10 μM [4]: 73%

CN(C)C(c1cccc(Cl)c1)C1CCCCC1(O)Cc1ccccc1.Cl (centres unmarked) [Example 44, 1-benzyl-2-[(3-chlorophenyl)dimethylaminomethyl]cyclohexanol, hydrochloride]
inhibition at 1 µM [1]: 99% | inhibition in vivo at 10 mg/kg [2]: 100% | BTX Binding at 10 μM [3]: 95% | Diltiazem Binding at 10 μM [4]: 71%

CN(C)C(c1ccccc1Cl)C1CCCCC1(O)Cc1ccccc1.Cl (centres unmarked) [Example 45, 1-benzyl-2-[(2-chlorophenyl)dimethylaminomethyl]cyclohexanol, hydrochloride]
inhibition at 1 µM [1]: 89% | inhibition in vivo at 10 mg/kg [2]: 82% | BTX Binding at 10 μM [3]: 96% | Diltiazem Binding at 10 μM [4]: 67%

CN(C)C(c1ccc(Cl)c(Cl)c1)C1CCCCC1(O)Cc1ccc(C(C)(C)C)cc1.Cl (centres unmarked) [Example 46, 1-(4-tert.-butylbenzyl)-2-[(3,4-dichlorophenyl)dimethylaminomethyl]cyclohexanol, hydrochloride]
inhibition at 1 µM [1]: 35% | inhibition in vivo at 10 mg/kg [2]: 68% | BTX Binding at 10 μM [3]: 96% | Diltiazem Binding at 10 μM [4]: 93%

CN(C)C(c1ccc(F)cc1)C1CCCCC1(O)Cc1cccc(C(F)(F)F)c1.Cl (centres unmarked) [Example 47, 2-[dimethylamino-(4-fluorophenyl)methyl]-1-(3-trifluoromethylbenzyl)cyclohexanol, hydrochloride]
inhibition at 1 µM [1]: 100% | inhibition in vivo at 10 mg/kg [2]: 89% | BTX Binding at 10 μM [3]: 100% | Diltiazem Binding at 10 μM [4]: 84%

CN(C)C(c1ccccc1)C1CCCCC1(O)C1CCCCC1.Cl (centres unmarked) [Example 48, 2-(dimethylaminophenylmethyl)bicyclohexyl-1-ol, hydrochloride]
inhibition at 1 µM [1]: 29% | inhibition in vivo at 10 mg/kg [2]: 94% | BTX Binding at 10 μM [3]: 96% | Diltiazem Binding at 10 μM [4]: 86%

COc1ccc(CC2(O)CCCCC2C(c2ccccc2)N(C)C)cc1.Cl (centres unmarked) [Example 49, 2-(dimethylaminophenylmethyl)-1-(4-methoxybenzyl)cyclohexanol, hydrochloride]
inhibition at 1 µM [1]: 100% | inhibition in vivo at 10 mg/kg [2]: 100% | BTX Binding at 10 μM [3]: 90% | Diltiazem Binding at 10 μM [4]: 93%

CN(C)C(c1ccccc1)C1CCCCC1(O)Cc1ccc(F)cc1F.Cl (centres unmarked) [Example 50, 1-(2,4-difluorobenzyl)-2-(dimethylaminophenylmethyl)cyclohexanol, hydrochloride]
inhibition at 1 µM [1]: 100% | inhibition in vivo at 10 mg/kg [2]: 85% | BTX Binding at 10 μM [3]: 95% | Diltiazem Binding at 10 μM [4]: 93%

CN(C)C(c1cccc(Cl)c1)C1CCCCC1(O)Cc1ccc(C(C)(C)C)cc1.Cl (centres unmarked) [Example 51, 1-(4-tert.-butylbenzyl)-2-[(3-chlorophenyl)dimethylaminomethyl]cyclohexanol, hydrochloride]
inhibition at 1 µM [1]: 10% | inhibition in vivo at 10 mg/kg [2]: 99% | BTX Binding at 10 μM [3]: 99% | Diltiazem Binding at 10 μM [4]: 77%

CN(C)C(c1cccc(Oc2ccccc2)c1)C1CCCCC1(O)CCc1ccccc1.Cl (centres unmarked) [Example 52, 2-[dimethylamino-(3-phenoxyphenyl)methyl]-1-phenethylcyclohexanol, hydrochloride]
inhibition at 1 µM [1]: 38% | inhibition in vivo at 10 mg/kg [2]: 70% | BTX Binding at 10 μM [3]: 99% | Diltiazem Binding at 10 μM [4]: 98%

CN(C)C(c1cccc(Oc2ccccc2)c1)C1CCCCC1(O)Cc1cccc(C(F)(F)F)c1.Cl (centres unmarked) [Example 53, 2-[dimethylamino-(3-phenoxyphenyl)methyl]-1-(3-trifluoromethylbenzyl)cyclohexanol, hydrochloride]
inhibition at 1 µM [1]: 49% | inhibition in vivo at 10 mg/kg [2]: 90% | BTX Binding at 10 μM [3]: 97% | Diltiazem Binding at 10 μM [4]: 92%

CN(C)C(c1ccccc1)C1CCCCC1(O)Cc1cc(F)ccc1F.Cl (centres unmarked) [Example 54, 1-(2,5-difluorobenzyl)-2-(dimethylaminophenylmethyl)cyclohexanol, hydrochloride]
inhibition at 1 µM [1]: 96% | inhibition in vivo at 10 mg/kg [2]: 98% | BTX Binding at 10 μM [3]: 98% | Diltiazem Binding at 10 μM [4]: 76%

CN(C)C(c1ccccc1)C1CCCCC1(O)Cc1ccc(F)c(F)c1.Cl (centres unmarked) [Example 55, 1-(3,4-difluorobenzyl)-2-(dimethylaminophenylmethyl)cyclohexanol, hydrochloride]
inhibition at 1 µM [1]: 38% | inhibition in vivo at 10 mg/kg [2]: 92% | BTX Binding at 10 μM [3]: 94% | Diltiazem Binding at 10 μM [4]: 76%

CN(C)C(c1ccccc1)C1CCCCC1(O)Cc1c(F)cccc1Cl.Cl (centres unmarked) [Example 56, 1-(2-chloro-6-fluorobenzyl)-2-(dimethylaminophenylmethyl)cyclohexanol, hydrochloride]
inhibition at 1 µM [1]: 92% | inhibition in vivo at 10 mg/kg [2]: 94% | BTX Binding at 10 μM [3]: 99% | Diltiazem Binding at 10 μM [4]: 88%

CN(C)C(c1ccccc1)C1CCCCC1(O)Cc1cccc(F)c1F.Cl (centres unmarked) [Example 57, 1-(2,3-difluorobenzyl)-2-(dimethylaminophenylmethyl)cyclohexanol, hydrochloride]
inhibition at 1 µM [1]: 99% | inhibition in vivo at 10 mg/kg [2]: 84% | BTX Binding at 10 μM [3]: 97% | Diltiazem Binding at 10 μM [4]: 83%

CN(C)C(c1ccc(Cl)cc1)C1CCCCC1(O)Cc1ccccc1.Cl (centres unmarked) [Example 58, 1-benzyl-2-[(4-chlorophenyl)dimethylaminomethyl]cyclohexanol, hydrochloride]
inhibition at 1 µM [1]: 0% | inhibition in vivo at 10 mg/kg [2]: 98% | BTX Binding at 10 μM [3]: 100% | Diltiazem Binding at 10 μM [4]: 80%

CCC(O)(CCc1ccccc1)C(C)C(c1ccccc1)N(C)C.Cl (centres unmarked) [Example 59, 1-dimethylamino-3-ethyl-2-methyl-1,5-diphenylpentan-3-ol, hydrochloride]
inhibition at 1 µM [1]: 26% | inhibition in vivo at 10 mg/kg [2]: 59% | BTX Binding at 10 μM [3]: 86% | Diltiazem Binding at 10 μM [4]: 64%

CN(C)C(c1ccccc1Cl)C1CCCCC1(O)Cc1ccccc1Cl.Cl (centres unmarked) [Example 60, 1-(2-chlorobenzyl)-2-[(2-chlorophenyl)dimethylaminomethyl]cyclohexanol, hydrochloride]
inhibition at 1 µM [1]: 56% | inhibition in vivo at 10 mg/kg [2]: 63% | BTX Binding at 10 μM [3]: 95% | Diltiazem Binding at 10 μM [4]: 79%
